These results are taken from patent publication US20260223850A1, “SUBSTITUTED PYRROLIDONE COMPOUND, PREPARATION METHOD THEREFOR, COMPOSITION AND APPLICATION THEREOF” (QINGDAO KINGAGROOT CHEMICAL COMPOUND CO., LTD., priority 2023, published 2026).

What all share (format): in vivo
For one series, the system named is Echinochloa crusgalli. As to the kind of experiment: Seedling stage sealing experiment for water-seeding. Particulars: 120 g a.i./ha, 15 days, fresh weight control rate.
For another series, the system named is Echinochloa phyllopogon. Described as above. Particulars: 120 g a.i./ha, 15 days, fresh weight control rate. In short, it runs like this: (§1)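 Read-out: 0–9 damage level from fresh-weight control rate (9 = completely dead, 1 = under 10%, 0 = no effect), averaged over triplicates, taken 15 days after spraying. Doses were 120, 60, 30 and 15 g a.i./ha, acetone/water solution, spray tower.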

In a further series the test system is Leptochloa chinensis. Described as above. To be noted: 120 g a.i./ha, 15 days, fresh weight control rate. In short, it runs like this:
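Seeds sown in soil-filled bowls kept moist in water-filled boxes; compound in acetone diluted with water and spray-applied at 120, 60, 30 and 15 g a.i./ha, triplicate. After 15 days in greenhouse, fresh-weight growth control scored on a 0–9 scale (9 = dead, 0 = no effect), averaged.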

A further series deals with Huaidao (rice cultivar). As to the kind of experiment: Seedling stage sealing experiment for water-seeding (crop safety). To be noted: 120 g a.i./ha, seedling stage sealing, 15 days, fresh weight control rate. The method, boiled down:
as §1

A further series has as its system Digitaria sanguinalis. The series is described as follows: Seedling stage sealing experiment for water-seeding. To be noted: 120 g a.i./ha, spray, seedling stage sealing for water-seeding, 15 days, fresh weight control rate. The method, boiled down: as §1
Where [1] appears, read: spray, seedling stage sealing for water-seeding.

Structures are written as SMILES.

Take `Cc1cccc([C@H]2CN(C)C(=O)[C@@H]2C(=O)Nc2cnn(C)c2Cl)c1` [17′]: the “Echinochloa crusgalli activity level (growth control rate)” value (shortened to “Echinochloa crusgalli activity level”) in the series with Echinochloa crusgalli (seedling stage sealing) was determined as 9. The “Echinochloa phyllopogon activity level (growth control rate)” value (shortened to “Echinochloa phyllopogon activity level”) in the series on Echinochloa phyllopogon (seedling stage sealing) is 6 (Level 6: growth control rate greater than or equal to 70% and less than 80%). Further, the “Leptochloa chinensis activity level (growth control rate)” value (“Leptochloa chinensis activity level” for short) with Leptochloa chinensis is 9. Also, in the series with Huaidao (rice cultivar), the “Huaidao (rice cultivar) plant damage level” value (“Huaidao” for short) came out at 0.
As to `CN1C[C@H](c2cccc(C(F)(F)F)c2)[C@@H](C(=O)Nc2cnn(C)c2C(F)(F)F)C1=O` [538′], in the series with Digitaria sanguinalis, the “Digitaria sanguinalis activity level (growth control rate)” value (from here on “Digitaria sanguinalis activity level”) came out at 9. For the same molecule, in the series on Echinochloa crusgalli (setting [1]), the “Echinochloa crusgalli activity level” value was 9. The “Echinochloa phyllopogon activity level” value with Echinochloa phyllopogon (setting [1]) is 9.
With `CCc1c(NC(=O)[C@H]2C(=O)N(C)C[C@@H]2c2cc(C)cc(C)c2)cnn1C(F)F` [544′], in the series on Digitaria sanguinalis, the “Digitaria sanguinalis activity level” value was found to be 9. Moreover, the “Echinochloa crusgalli activity level” value in the series on Echinochloa crusgalli (setting [1]) is 9. Moreover, the “Echinochloa phyllopogon activity level” value with Echinochloa phyllopogon (setting [1]) is listed as 9.
In the case of `COCn1ncc(NC(=O)[C@H]2C(=O)N(C)C[C@@H]2c2cc(C)cc(C)c2)c1C1CC1` [549′], in the series with Digitaria sanguinalis, the “Digitaria sanguinalis activity level” value was 9. In the series with Echinochloa crusgalli (setting [1]), the “Echinochloa crusgalli activity level” value was found to be 9. Moreover, the “Echinochloa phyllopogon activity level” value in the series on Echinochloa phyllopogon (setting [1]) stood at 9.
For `CN1C[C@H](c2cc(Br)cc(C(F)(F)F)c2)[C@@H](C(=O)Nc2cnn(C(F)F)c2Cl)C1=O` [557′], the “Digitaria sanguinalis activity level” value with Digitaria sanguinalis worked out at 9. The “Echinochloa crusgalli activity level” value with Echinochloa crusgalli (setting [1]) came to 9. In addition, the “Echinochloa phyllopogon activity level” value with Echinochloa phyllopogon (setting [1]) is 6 (Level 6: growth control rate greater than or equal to 70% and less than 80%).
`CN1CC(c2ccc(F)c(C(F)(F)F)c2)C(C(=O)Nc2cnn(C)c2Cl)C1=O` (stereo not drawn) [Compound 54]: in the series with Echinochloa crusgalli (seedling stage sealing), the “Echinochloa crusgalli activity level” value came to 9. The “Echinochloa phyllopogon activity level” value with Echinochloa phyllopogon (seedling stage sealing) is reported as 9. Also, in the series on Leptochloa chinensis, the “Leptochloa chinensis activity level” value stood at 9. For the same molecule, the “Huaidao” value in the series with Huaidao (rice cultivar) worked out at 0.
For the molecule `CN1CC(c2cc(C(F)(F)F)ccc2F)C(C(=O)Nc2cnn(C)c2Cl)C1=O` (stereo not drawn) [Compound 80], in the series with Echinochloa crusgalli (seedling stage sealing), the “Echinochloa crusgalli activity level” value is 6 (Level 6: growth control rate greater than or equal to 70% and less than 80%). In addition, in the series with Echinochloa phyllopogon (seedling stage sealing), the “Echinochloa phyllopogon activity level” value was 6 (Level 6: growth control rate greater than or equal to 70% and less than 80%). The “Leptochloa chinensis activity level” value with Leptochloa chinensis is 6 (Level 6: growth control rate greater than or equal to 70% and less than 80%).
For the molecule `CCn1ncc(NC(=O)C2C(=O)N(C)CC2c2cccc(C(F)(F)F)c2)c1Cl` (stereo not drawn) [Compound 95], in the series with Echinochloa crusgalli (seedling stage sealing), the “Echinochloa crusgalli activity level” value is 6 (Level 6: growth control rate greater than or equal to 70% and less than 80%). Besides, the “Echinochloa phyllopogon activity level” value with Echinochloa phyllopogon (seedling stage sealing) is 6 (Level 6: growth control rate greater than or equal to 70% and less than 80%). Further, in the series with Leptochloa chinensis, the “Leptochloa chinensis activity level” value came to 9.
With `CC(C)n1ncc(NC(=O)C2C(=O)N(C)CC2c2cccc(C(F)(F)F)c2)c1Cl` (stereo not drawn) [Compound 97], the “Echinochloa crusgalli activity level” value in the series with Echinochloa crusgalli (seedling stage sealing) is reported as 9. Moreover, in the series on Echinochloa phyllopogon (seedling stage sealing), the “Echinochloa phyllopogon activity level” value was 7 (Level 7: growth control rate greater than or equal to 80% and less than 90%). Moreover, the “Leptochloa chinensis activity level” value in the series on Leptochloa chinensis is given as 9.
On to `CN1CC(c2cc(F)cc(F)c2)C(C(=O)Nc2cnn(C)c2Cl)C1=O` (stereo not drawn) [Compound 115], for which, in the series on Echinochloa crusgalli (seedling stage sealing), the “Echinochloa crusgalli activity level” value stood at 9. The “Echinochloa phyllopogon activity level” value with Echinochloa phyllopogon (seedling stage sealing) is 6 (Level 6: growth control rate greater than or equal to 70% and less than 80%). The “Leptochloa chinensis activity level” value with Leptochloa chinensis is 6 (Level 6: growth control rate greater than or equal to 70% and less than 80%).
As for `CN1CC(c2ccccc2)C(C(=O)Nc2cnn(C)c2Cl)C1=O` (stereo not drawn) [Compound 121], in the series on Echinochloa crusgalli (seedling stage sealing), the “Echinochloa crusgalli activity level” value amounted to 9. Moreover, the “Echinochloa phyllopogon activity level” value in the series on Echinochloa phyllopogon (seedling stage sealing) stood at 9. The “Leptochloa chinensis activity level” value in the series on Leptochloa chinensis was 6 (Level 6: growth control rate greater than or equal to 70% and less than 80%). In addition, the “Huaidao” value in the series with Huaidao (rice cultivar) was 0.
Turning to `CN1CC(c2cccc(Br)c2)C(C(=O)Nc2cnn(C)c2Cl)C1=O` (stereo not drawn) [Compound 126], the “Echinochloa crusgalli activity level” value in the series on Echinochloa crusgalli (seedling stage sealing) was 7 (Level 7: growth control rate greater than or equal to 80% and less than 90%). The “Echinochloa phyllopogon activity level” value in the series with Echinochloa phyllopogon (seedling stage sealing) is 7 (Level 7: growth control rate greater than or equal to 80% and less than 90%). Besides, the “Leptochloa chinensis activity level” value in the series on Leptochloa chinensis was 9.
On to `CN1CC(c2cccc(C(F)(F)F)c2)C(C(=O)Nc2cnn(C3CC3)c2Cl)C1=O` (stereo not drawn) [Compound 164], for which the “Echinochloa crusgalli activity level” value with Echinochloa crusgalli (seedling stage sealing) was 7 (Level 7: growth control rate greater than or equal to 80% and less than 90%). The “Echinochloa phyllopogon activity level” value in the series with Echinochloa phyllopogon (seedling stage sealing) was 6 (Level 6: growth control rate greater than or equal to 70% and less than 80%). Besides, the “Leptochloa chinensis activity level” value in the series with Leptochloa chinensis is recorded as 9.
Turning to `Cc1cc(C)cc(C2CN(C)C(=O)C2C(=O)Nc2c(O)nn(C)c2F)c1` (stereo not drawn) [Compound 286], the “Echinochloa crusgalli activity level” value in the series with Echinochloa crusgalli (seedling stage sealing) was 9. Moreover, in the series with Echinochloa phyllopogon (seedling stage sealing), the “Echinochloa phyllopogon activity level” value is 7 (Level 7: growth control rate greater than or equal to 80% and less than 90%). In the series with Leptochloa chinensis, the “Leptochloa chinensis activity level” value was found to be 9.
On to `CN1CC(c2ccc(F)cc2F)C(C(=O)Nc2cnn(C)c2Cl)C1=O` (stereo not drawn) [Compound 304], for which the “Echinochloa crusgalli activity level” value in the series with Echinochloa crusgalli (seedling stage sealing) is 7 (Level 7: growth control rate greater than or equal to 80% and less than 90%). For the same molecule, the “Echinochloa phyllopogon activity level” value with Echinochloa phyllopogon (seedling stage sealing) was 6 (Level 6: growth control rate greater than or equal to 70% and less than 80%). Moreover, the “Leptochloa chinensis activity level” value in the series on Leptochloa chinensis was 5 (Level 5: growth control rate greater than or equal to 50% and less than 70%).
Turning to `COc1cccc(C2CN(C)C(=O)C2C(=O)Nc2cnn(C)c2Cl)c1F` (stereo not drawn) [Compound 307], the “Echinochloa crusgalli activity level” value in the series on Echinochloa crusgalli (seedling stage sealing) is 6 (Level 6: growth control rate greater than or equal to 70% and less than 80%). Further, in the series on Echinochloa phyllopogon (seedling stage sealing), the “Echinochloa phyllopogon activity level” value was 6 (Level 6: growth control rate greater than or equal to 70% and less than 80%). Further, in the series with Leptochloa chinensis, the “Leptochloa chinensis activity level” value is 5 (Level 5: growth control rate greater than or equal to 50% and less than 70%).
Regarding `CN1CC(c2ccc(Cl)c(Cl)c2)C(C(=O)Nc2cnn(C)c2Cl)C1=O` (stereo not drawn) [Compound 309], in the series with Echinochloa crusgalli (seedling stage sealing), the “Echinochloa crusgalli activity level” value is 6 (Level 6: growth control rate greater than or equal to 70% and less than 80%). The “Echinochloa phyllopogon activity level” value in the series on Echinochloa phyllopogon (seedling stage sealing) is 5 (Level 5: growth control rate greater than or equal to 50% and less than 70%). Also, the “Leptochloa chinensis activity level” value in the series on Leptochloa chinensis was determined as 9.
In the case of `CN1CC(c2ccc(F)c(Cl)c2)C(C(=O)Nc2cnn(C)c2Cl)C1=O` (stereo not drawn) [Compound 310], the “Echinochloa crusgalli activity level” value in the series on Echinochloa crusgalli (seedling stage sealing) was 9. Moreover, in the series with Echinochloa phyllopogon (seedling stage sealing), the “Echinochloa phyllopogon activity level” value is 8 (Level 8: growth control rate greater than or equal to 90% and less than 100%). Besides, in the series with Leptochloa chinensis, the “Leptochloa chinensis activity level” value was 9.
For `Cc1ccc(C2CN(C)C(=O)C2C(=O)Nc2cnn(C)c2Cl)cc1C` (stereo not drawn) [Compound 314], in the series on Echinochloa crusgalli (seedling stage sealing), the “Echinochloa crusgalli activity level” value is 7 (Level 7: growth control rate greater than or equal to 80% and less than 90%). In addition, the “Echinochloa phyllopogon activity level” value in the series with Echinochloa phyllopogon (seedling stage sealing) is 6 (Level 6: growth control rate greater than or equal to 70% and less than 80%). In addition, the “Leptochloa chinensis activity level” value in the series on Leptochloa chinensis was 9.
Regarding `COc1cc(C2CN(C)C(=O)C2C(=O)Nc2cnn(C)c2Cl)ccc1F` (stereo not drawn) [Compound 320], the “Echinochloa crusgalli activity level” value with Echinochloa crusgalli (seedling stage sealing) was 6 (Level 6: growth control rate greater than or equal to 70% and less than 80%). For the same molecule, the “Echinochloa phyllopogon activity level” value with Echinochloa phyllopogon (seedling stage sealing) was 6 (Level 6: growth control rate greater than or equal to 70% and less than 80%). Moreover, in the series with Leptochloa chinensis, the “Leptochloa chinensis activity level” value was 5 (Level 5: growth control rate greater than or equal to 50% and less than 70%).
For `COc1cc(C2CN(C)C(=O)C2C(=O)Nc2cnn(C)c2Cl)ccc1C` (stereo not drawn) [Compound 321], the “Echinochloa crusgalli activity level” value in the series on Echinochloa crusgalli (seedling stage sealing) was 5 (Level 5: growth control rate greater than or equal to 50% and less than 70%). The “Echinochloa phyllopogon activity level” value with Echinochloa phyllopogon (seedling stage sealing) was 5 (Level 5: growth control rate greater than or equal to 50% and less than 70%). The “Leptochloa chinensis activity level” value in the series on Leptochloa chinensis was 6 (Level 6: growth control rate greater than or equal to 70% and less than 80%).
For the molecule `CN1CC(c2cc(F)c(F)c(F)c2)C(C(=O)Nc2cnn(C)c2F)C1=O` (stereo not drawn) [Compound 323], the “Echinochloa crusgalli activity level” value in the series with Echinochloa crusgalli (seedling stage sealing) was 5 (Level 5: growth control rate greater than or equal to 50% and less than 70%). Also, in the series on Echinochloa phyllopogon (seedling stage sealing), the “Echinochloa phyllopogon activity level” value is 5 (Level 5: growth control rate greater than or equal to 50% and less than 70%). For the same molecule, in the series with Leptochloa chinensis, the “Leptochloa chinensis activity level” value is 6 (Level 6: growth control rate greater than or equal to 70% and less than 80%).
On to `CN1CC(c2cc(F)c(F)c(F)c2)C(C(=O)Nc2c(O)nn(C)c2F)C1=O` (stereo not drawn) [Compound 324], for which the “Echinochloa crusgalli activity level” value in the series with Echinochloa crusgalli (seedling stage sealing) is 7 (Level 7: growth control rate greater than or equal to 80% and less than 90%). Further, the “Echinochloa phyllopogon activity level” value in the series with Echinochloa phyllopogon (seedling stage sealing) was 7 (Level 7: growth control rate greater than or equal to 80% and less than 90%). In addition, the “Leptochloa chinensis activity level” value in the series on Leptochloa chinensis was 9.
On to `COc1c(Cl)ccc(C2CN(C)C(=O)C2C(=O)Nc2c(O)nn(C)c2F)c1F` (stereo not drawn) [Compound 331], for which the “Echinochloa crusgalli activity level” value in the series on Echinochloa crusgalli (seedling stage sealing) stood at 9. In addition, the “Echinochloa phyllopogon activity level” value in the series with Echinochloa phyllopogon (seedling stage sealing) is 7 (Level 7: growth control rate greater than or equal to 80% and less than 90%). The “Leptochloa chinensis activity level” value with Leptochloa chinensis was 9.
